Measurements taken from ChEMBL document CHEMBL1151274, “Halogenated helianane derivatives from the sponge Spirastrella hartmani” (2005).
The source made the active and inactive calls. No cut-off for these calls is given here.

What was measured:
Assay type in all cases: functional
A549 = assay: Cytotoxicity against human A549 cells by sulforhodamine B assay
HT-29 = assay: Cytotoxicity against human HT-29 cells by sulforhodamine B assay
MDA-MB-231 = assay: Cytotoxicity against human MDA-MB-231 cells by sulforhodamine B assay

Row | SMILES | GI50 (A549) | GI50 (HT-29) | GI50 (MDA-MB-231) | Activity (A549) | Activity (HT-29) | Activity (MDA-MB-231)
1 | COc1cc2c(cc1O)CCN[C@]21CS[C@@H]2c3c(OC(C)=O)c(C)c4c(c3[C@H](COC1=O)N1[C@@H]2[C@H]2c3c(cc(C)c(OC)c3O)C[C@@H]([C@@H]1O)N2C)OCO4 [TRABECTEDIN] | 0.0263 µM | 0.0197 µM | 0.0184 µM | – | – | –
2 | Cc1cc2c(cc1Cl)[C@@H](C)CCCC(C)(C)O2 | 37.2 µM | 37.6 µM | 37.6 µM | – | – | –
3 | Cc1cc2c(cc1Br)[C@@H](C)CCCC(C)(C)O2 | – | – | – | inactive | inactive | inactive
